ChEMBL document CHEMBL1201862, “PubChem BioAssay data set” (2004)
Values joined by “and” are separate entries in the source; they are usually repeats but may differ in a detail not shown here. Equal entries are not always repeated. Active and inactive are the calls of the source.

What was measured:
[1] = target: E3 ubiquitin-protein ligase XIAP (Homo sapiens, UniProt P98170); experiment: Counter Screen using XIAP-Bir3 for Chemical Antagonists of Bir1/2 domains of IAP-family anti-apoptotic proteins. [Related pubchem assays (depositor defined):AID1018, AID1449, AID1514, AID1638, AID1749, AID1750, AID488957, AID488963]
E3 ubiquitin-protein ligase XIAP, sequence (P98170 whole entry): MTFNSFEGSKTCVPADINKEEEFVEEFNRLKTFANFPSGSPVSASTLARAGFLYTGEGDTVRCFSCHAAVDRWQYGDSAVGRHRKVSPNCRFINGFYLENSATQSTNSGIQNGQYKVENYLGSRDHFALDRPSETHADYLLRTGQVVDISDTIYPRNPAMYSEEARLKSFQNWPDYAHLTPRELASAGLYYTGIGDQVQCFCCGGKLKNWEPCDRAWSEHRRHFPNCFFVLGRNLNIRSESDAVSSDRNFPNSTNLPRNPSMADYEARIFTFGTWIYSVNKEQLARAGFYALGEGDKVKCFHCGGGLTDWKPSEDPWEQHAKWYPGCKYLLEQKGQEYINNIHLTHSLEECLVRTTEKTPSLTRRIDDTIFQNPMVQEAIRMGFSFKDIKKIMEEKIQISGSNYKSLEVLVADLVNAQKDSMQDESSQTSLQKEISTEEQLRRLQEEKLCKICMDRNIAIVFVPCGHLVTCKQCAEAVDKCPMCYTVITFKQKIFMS

Protein S100-A4 = Protein S100-A4 (Homo sapiens, UniProt P26447); experiment: human S100A4 peptide interaction inhibition curves – biochemical, fluorescence polarization, cherry-picked hits, dose response (AID 687001); type: functional
Protein S100-A4, sequence (P26447 whole entry): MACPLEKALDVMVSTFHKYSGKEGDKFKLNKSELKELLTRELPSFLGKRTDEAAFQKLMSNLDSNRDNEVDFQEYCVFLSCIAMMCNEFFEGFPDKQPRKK

ORF 73 = ORF 73 (Human herpesvirus 8, UniProt O40947); experiment: KSHV LANA DNA-binding disruption – biochemical, fluorescence polarization, cherry-picked samples, dose response (AID 504725); design: species or system Human gammaherpesvirus 8;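 further: fluorescence polarization of a labeled DNA duplex reporting LANA DNA binding; potency is for inhibitors that block LANA binding to the DNA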
ORF 73, sequence (O40947 whole entry, the tested form may be a part): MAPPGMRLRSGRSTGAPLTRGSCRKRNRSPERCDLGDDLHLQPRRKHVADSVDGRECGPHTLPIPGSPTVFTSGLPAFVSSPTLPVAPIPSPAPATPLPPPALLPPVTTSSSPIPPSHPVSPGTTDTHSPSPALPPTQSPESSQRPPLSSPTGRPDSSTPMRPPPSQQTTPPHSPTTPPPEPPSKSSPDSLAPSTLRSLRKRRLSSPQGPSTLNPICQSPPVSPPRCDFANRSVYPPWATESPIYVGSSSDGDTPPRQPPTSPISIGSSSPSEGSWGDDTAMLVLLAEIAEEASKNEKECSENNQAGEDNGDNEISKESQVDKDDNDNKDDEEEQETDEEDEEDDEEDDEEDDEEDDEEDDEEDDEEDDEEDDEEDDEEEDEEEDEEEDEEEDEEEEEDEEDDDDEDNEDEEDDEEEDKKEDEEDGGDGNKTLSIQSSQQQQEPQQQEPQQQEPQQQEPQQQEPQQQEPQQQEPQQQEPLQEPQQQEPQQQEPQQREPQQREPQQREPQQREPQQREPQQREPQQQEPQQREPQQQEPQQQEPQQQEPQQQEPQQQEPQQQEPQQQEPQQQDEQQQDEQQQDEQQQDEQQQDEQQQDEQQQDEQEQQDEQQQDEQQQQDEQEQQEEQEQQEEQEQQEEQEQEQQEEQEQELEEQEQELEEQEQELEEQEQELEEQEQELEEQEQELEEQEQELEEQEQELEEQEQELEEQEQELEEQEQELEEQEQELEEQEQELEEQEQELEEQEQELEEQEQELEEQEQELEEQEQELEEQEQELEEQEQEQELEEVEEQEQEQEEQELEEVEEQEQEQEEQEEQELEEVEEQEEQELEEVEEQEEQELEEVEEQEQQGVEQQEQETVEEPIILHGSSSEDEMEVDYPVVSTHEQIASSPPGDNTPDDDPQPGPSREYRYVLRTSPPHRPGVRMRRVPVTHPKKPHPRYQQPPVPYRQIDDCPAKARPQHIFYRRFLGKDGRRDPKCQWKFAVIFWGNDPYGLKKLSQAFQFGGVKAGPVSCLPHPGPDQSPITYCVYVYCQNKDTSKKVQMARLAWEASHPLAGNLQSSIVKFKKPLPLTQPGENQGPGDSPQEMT

Fibrinogen beta chain [2] = target: T1, Fibrinogen beta chain (Homo sapiens, UniProt P02675); experiment: Fluorescence polarization-based biochemical high throughput dose response assay to identify inhibitors that disrupt the binding of a cyclic peptide (Tn7) to the fibrin proteolytic product D-Dimer and fragment E complex [DD(E )].
T1 sequence (P02675 whole entry): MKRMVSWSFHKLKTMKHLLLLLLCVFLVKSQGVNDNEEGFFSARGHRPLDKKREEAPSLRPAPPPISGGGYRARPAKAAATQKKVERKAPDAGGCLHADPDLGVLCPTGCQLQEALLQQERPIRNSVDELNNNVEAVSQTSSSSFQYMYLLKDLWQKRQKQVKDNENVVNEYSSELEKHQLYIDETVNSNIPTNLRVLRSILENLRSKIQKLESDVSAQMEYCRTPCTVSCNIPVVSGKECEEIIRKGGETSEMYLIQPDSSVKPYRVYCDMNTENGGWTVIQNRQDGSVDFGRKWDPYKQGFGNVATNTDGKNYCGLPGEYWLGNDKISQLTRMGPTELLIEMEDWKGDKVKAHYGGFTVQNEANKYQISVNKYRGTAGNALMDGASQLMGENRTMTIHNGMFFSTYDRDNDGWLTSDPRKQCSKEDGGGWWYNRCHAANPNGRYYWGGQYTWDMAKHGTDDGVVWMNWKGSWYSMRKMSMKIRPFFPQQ

[3] = target: T2, RNA-binding protein pos-1 (Caenorhabditis elegans, UniProt G5EF15); experiment: disruptors of C. elegans POS-1 RNA interaction – biochemical, fluorescence polarization, dose response (AID 1964);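 further: purified POS-1 fused to maltose binding protein made in E. coli; potency of compounds blocking POS-1 binding to fluorescent RNA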
T2 sequence (G5EF15 whole entry): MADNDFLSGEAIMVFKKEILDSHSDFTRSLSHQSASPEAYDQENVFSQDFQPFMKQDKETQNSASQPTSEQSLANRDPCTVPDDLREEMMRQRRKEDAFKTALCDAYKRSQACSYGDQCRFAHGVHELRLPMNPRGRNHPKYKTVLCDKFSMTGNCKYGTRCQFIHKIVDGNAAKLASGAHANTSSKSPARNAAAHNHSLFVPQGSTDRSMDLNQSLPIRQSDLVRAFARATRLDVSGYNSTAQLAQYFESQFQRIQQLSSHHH

Keap1/Nrf2 = Keap1/Nrf2 (Homo sapiens, UniProt Q14145); experiment: disruptors of Keap1 binding to Nrf2 peptide – biochemical, fluorescence polarization, cherry-picked samples, dose response (AID 588683)
Keap1/Nrf2, sequence (Q16236 whole entry, the tested form may be a part): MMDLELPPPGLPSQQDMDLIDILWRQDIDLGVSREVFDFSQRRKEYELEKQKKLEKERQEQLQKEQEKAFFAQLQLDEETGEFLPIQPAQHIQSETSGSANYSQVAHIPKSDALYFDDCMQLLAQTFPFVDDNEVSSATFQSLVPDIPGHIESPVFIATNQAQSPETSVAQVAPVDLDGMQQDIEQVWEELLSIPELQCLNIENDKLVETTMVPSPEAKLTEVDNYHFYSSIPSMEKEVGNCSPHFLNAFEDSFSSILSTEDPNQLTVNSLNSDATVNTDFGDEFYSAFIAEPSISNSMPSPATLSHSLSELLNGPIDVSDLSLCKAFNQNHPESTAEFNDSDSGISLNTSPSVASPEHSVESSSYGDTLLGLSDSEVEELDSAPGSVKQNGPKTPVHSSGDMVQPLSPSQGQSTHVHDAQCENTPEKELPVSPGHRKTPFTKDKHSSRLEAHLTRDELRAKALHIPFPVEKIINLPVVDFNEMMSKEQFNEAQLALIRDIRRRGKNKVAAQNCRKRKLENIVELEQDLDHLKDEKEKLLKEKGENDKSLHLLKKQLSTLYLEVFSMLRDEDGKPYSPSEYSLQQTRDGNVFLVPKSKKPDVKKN
Keap1/Nrf2, sequence (Q14145 whole entry, the tested form may be a part): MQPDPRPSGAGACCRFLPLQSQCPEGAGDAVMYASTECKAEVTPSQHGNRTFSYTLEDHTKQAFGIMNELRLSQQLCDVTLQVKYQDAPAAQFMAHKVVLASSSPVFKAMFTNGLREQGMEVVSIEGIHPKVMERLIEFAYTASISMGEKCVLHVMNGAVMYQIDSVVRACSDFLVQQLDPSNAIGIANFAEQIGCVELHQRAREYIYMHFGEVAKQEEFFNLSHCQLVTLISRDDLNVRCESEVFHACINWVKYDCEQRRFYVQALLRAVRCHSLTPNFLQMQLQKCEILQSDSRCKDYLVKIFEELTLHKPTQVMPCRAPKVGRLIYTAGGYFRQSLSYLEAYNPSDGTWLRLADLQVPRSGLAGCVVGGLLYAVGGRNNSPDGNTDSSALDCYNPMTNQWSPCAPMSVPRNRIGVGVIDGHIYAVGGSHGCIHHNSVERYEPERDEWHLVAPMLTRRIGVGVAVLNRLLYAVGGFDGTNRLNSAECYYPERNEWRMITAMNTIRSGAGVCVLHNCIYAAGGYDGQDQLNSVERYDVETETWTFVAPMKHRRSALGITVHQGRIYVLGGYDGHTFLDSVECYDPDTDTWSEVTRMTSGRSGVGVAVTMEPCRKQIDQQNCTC

Fibrinogen beta chain [4] = target: T1, Fibrinogen beta chain; experiment: Fluorescence polarization-based biochemical high throughput dose response assay to identify inhibitors that disrupt the binding of a cyclic peptide (Tn6) to the fibrin proteolytic product D-Dimer and fragment E complex [DD(E )].
[5] = target: UDP-galactopyranose mutase (Mycobacterium tuberculosis, UniProt P9WIQ1); experiment: Inhibitors of Mycobacterium tuberculosis UDP-galactopyranose mutase (UGM) enzyme Measured in Biochemical System Using Plate Reader - 2105-02_Inhibitor_Dose_CherryPick_Activity. [Related pubchem assays (depositor defined):AID504439]
UDP-galactopyranose mutase, sequence (P9WIQ1 whole entry): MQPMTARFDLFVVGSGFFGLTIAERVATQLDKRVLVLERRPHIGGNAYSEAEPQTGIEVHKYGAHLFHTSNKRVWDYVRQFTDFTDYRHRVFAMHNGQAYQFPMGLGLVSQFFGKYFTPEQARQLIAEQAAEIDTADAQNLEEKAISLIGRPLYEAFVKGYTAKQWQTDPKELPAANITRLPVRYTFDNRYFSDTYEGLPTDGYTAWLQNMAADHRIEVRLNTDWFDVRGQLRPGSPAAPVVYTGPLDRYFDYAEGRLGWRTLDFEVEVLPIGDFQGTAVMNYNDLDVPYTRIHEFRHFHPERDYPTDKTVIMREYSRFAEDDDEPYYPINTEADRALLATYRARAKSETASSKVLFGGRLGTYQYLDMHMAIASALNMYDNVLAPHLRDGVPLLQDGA

[6] = target: T3, Zinc finger protein mex-5 (Caenorhabditis elegans, UniProt Q9XUB2); experiment: potency of MEX-5 RNA-binding blockers – biochemical, C. elegans, fluorescence polarization, dose response (AID 1960)
T3 sequence (Q9XUB2 whole entry): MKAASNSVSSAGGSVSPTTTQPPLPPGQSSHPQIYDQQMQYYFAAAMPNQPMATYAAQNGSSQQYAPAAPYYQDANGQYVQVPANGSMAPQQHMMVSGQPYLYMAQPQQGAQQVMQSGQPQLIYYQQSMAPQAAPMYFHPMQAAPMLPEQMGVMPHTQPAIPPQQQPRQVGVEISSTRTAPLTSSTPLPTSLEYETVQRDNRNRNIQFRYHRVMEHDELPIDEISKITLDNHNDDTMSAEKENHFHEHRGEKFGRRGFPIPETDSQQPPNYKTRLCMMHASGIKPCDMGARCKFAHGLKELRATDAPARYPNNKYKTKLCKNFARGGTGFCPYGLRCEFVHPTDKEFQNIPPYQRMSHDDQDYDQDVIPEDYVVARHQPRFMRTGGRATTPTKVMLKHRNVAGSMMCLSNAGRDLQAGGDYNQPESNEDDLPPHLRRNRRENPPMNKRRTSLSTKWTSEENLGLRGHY

[7] = target: Kappa-type opioid receptor (Homo sapiens, UniProt P41145); experiment: SAR analysis of small molecule agonists of the kappa opioid receptor via a luminescent beta-arrestin assay - Set 3. [Related pubchem assays (depositor defined):AID1777, AID1785, AID1786, AID1966, AID2133, AID2136, AID2284, AID2500]; type: functional
Kappa-type opioid receptor, sequence (P41145 whole entry): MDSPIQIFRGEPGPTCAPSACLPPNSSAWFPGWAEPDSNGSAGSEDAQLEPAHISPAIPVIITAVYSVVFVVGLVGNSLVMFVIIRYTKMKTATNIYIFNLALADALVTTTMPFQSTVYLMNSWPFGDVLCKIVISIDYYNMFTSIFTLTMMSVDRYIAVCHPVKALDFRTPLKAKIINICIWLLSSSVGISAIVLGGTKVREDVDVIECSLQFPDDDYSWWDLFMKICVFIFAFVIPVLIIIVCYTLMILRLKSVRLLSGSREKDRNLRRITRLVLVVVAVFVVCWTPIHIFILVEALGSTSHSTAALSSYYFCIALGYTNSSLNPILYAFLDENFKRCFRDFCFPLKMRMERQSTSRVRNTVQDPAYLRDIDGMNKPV

[8] = target: Tyrosine-protein phosphatase non-receptor type 7 (Homo sapiens, UniProt P35236); experiment: redox-active compounds inhibiting HePTP phosphatase – biochemical, fluorescence, mechanism study (AID 2068); type: functional
Tyrosine-protein phosphatase non-receptor type 7, sequence (P35236 whole entry): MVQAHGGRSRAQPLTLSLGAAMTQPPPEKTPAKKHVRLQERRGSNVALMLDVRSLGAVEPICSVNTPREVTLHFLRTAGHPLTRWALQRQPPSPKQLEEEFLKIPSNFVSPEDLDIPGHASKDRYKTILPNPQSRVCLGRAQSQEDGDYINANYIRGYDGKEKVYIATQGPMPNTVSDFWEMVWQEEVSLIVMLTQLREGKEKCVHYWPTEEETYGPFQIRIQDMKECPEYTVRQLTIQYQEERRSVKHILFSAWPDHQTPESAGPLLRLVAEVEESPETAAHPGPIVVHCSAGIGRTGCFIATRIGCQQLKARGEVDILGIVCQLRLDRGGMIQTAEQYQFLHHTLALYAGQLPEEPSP

[9] = target: Dual specificity protein phosphatase 6 (Rattus norvegicus, UniProt Q64346); type: functional;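 further: confirmatory in vitro dose-response testing of MKP-3 inhibition; recombinant His-tagged MKP-3 made in E. coli BL21 with OMFP substrate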
Dual specificity protein phosphatase 6, sequence (Q64346 whole entry): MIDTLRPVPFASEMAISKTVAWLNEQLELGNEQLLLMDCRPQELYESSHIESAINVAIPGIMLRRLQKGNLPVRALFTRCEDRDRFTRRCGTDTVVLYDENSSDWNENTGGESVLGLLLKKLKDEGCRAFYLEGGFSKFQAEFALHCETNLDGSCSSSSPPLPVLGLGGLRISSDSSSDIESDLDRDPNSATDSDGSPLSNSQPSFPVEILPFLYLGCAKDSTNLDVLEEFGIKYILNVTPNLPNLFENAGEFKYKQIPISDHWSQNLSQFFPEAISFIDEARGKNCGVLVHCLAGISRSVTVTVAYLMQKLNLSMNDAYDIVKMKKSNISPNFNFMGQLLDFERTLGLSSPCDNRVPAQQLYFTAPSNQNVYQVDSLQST

Cytochrome P450 1A2 = target: T4, Cytochrome P450 1A2 (Homo sapiens, UniProt P05177);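 further: PubChem cytochrome P450 panel assay, CYP1A2 panel member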
T4 sequence (P05177 whole entry): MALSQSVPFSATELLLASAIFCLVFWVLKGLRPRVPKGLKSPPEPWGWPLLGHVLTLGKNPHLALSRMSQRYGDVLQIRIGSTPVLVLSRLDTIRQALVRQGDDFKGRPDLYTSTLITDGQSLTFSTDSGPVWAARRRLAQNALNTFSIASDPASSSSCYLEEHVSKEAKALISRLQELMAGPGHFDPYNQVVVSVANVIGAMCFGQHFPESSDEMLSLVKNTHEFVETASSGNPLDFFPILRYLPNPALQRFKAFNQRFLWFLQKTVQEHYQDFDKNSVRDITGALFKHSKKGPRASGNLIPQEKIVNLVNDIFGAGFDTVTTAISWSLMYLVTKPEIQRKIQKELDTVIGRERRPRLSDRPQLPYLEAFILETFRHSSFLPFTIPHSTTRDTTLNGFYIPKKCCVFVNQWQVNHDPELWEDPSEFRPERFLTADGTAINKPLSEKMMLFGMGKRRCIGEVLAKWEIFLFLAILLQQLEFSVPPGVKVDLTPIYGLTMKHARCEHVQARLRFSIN

[10] = target: T5, Heat shock factor protein 1 (Mus musculus, UniProt P38532); experiment: decrease of HSF1-responsive luciferase luminescence – cell-based, NIH3T3, dose retest, confirmation (AID 2382); type: functional;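 further: NIH3T3 fibroblasts with HSF1-driven luciferase reporter stressed by proteasome inhibitor MG132; luminescence from HSF1-driven luciferase expression after 8 hours of MG132 stress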
T5 sequence (P38532 whole entry): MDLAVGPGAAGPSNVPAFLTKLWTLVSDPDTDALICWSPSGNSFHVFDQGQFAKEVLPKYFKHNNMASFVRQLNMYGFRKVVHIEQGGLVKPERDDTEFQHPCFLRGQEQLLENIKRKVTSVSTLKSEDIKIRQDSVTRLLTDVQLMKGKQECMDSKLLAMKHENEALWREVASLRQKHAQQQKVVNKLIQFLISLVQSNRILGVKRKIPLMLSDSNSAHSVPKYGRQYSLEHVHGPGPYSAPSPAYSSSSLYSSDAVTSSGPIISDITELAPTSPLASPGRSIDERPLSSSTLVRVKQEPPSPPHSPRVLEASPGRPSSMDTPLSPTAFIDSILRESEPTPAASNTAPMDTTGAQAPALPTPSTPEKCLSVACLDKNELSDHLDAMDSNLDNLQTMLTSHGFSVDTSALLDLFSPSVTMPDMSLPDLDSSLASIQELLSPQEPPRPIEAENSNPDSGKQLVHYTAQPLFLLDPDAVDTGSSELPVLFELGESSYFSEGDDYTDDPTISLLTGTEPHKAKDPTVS

Cytochrome P450 2D6 = Cytochrome P450 2D6 (Homo sapiens, UniProt P10635);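 further: CYP2D6 member of a cytochrome P450 panel assay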
Cytochrome P450 2D6, sequence (P10635 whole entry): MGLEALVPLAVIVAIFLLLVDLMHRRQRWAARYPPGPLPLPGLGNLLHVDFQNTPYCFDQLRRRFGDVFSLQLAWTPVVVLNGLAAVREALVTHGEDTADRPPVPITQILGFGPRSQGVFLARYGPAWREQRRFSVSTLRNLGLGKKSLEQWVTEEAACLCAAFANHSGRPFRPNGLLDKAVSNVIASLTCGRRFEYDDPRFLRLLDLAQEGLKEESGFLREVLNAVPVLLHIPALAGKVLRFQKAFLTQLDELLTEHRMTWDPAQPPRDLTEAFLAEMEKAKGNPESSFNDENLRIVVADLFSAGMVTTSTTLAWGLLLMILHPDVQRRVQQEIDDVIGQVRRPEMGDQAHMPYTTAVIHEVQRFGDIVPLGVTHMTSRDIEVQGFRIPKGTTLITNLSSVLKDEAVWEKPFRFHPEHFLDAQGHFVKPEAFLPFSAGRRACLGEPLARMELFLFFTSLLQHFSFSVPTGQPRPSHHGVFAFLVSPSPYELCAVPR

In the case of `CN1C(=O)NC(c2ccccc2[N+](=O)[O-])C2=C1CCCC2=O` (stereo not given), the IC50 [1] is reported as > 20 µM (inactive), the AC50 (Protein S100-A4) is reported as 1.41 µM (active) and the AC50 (ORF 73) is reported as 24.9 µM (active). For the same molecule, the IC50 (Fibrinogen beta chain [2]) was > 83.3 µM (inactive), the EC50 [3] was 8.8 µM (active) and the AC50 (Keap1/Nrf2) was 44.5 µM (active). For the same molecule, the IC50 (Fibrinogen beta chain [4]) was 11.3 µM (inactive), the AC50 [5] was 54.3 µM (active) and the EC50 [6] was 7.58 µM (inconclusive).
For `CCCCN(Cc1cc2cc(Cl)ccc2[nH]c1=O)C(=O)c1ccccn1`, the EC50 [7] was 1.87 µM (active).
For `COc1cc(C(=S)NCc2ccc(F)c(C)c2)ccc1O`, the IC50 [8] was 4.33 µM (active) and the IC50 [9] was > 100 µM (inactive).
For `Cc1ccc(N(CC2=NCCN2)c2cccc(O)c2)cc1` [PHENTOLAMINE], the AC50 (Cytochrome P450 1A2) was “inactive”, the EC50 [10] was > 195 µM (not active) and the AC50 (Cytochrome P450 2D6) was 794 nM (active) and 1.12 µM (active).
